Data published in the supplement of paper PMC11061612.

Experiments:
[1] = tested on: SK-CO-1 (Colorectal Carcinoma); assay: combination Emax (second highest fraction inhibited in the dose matrix, 72 h); higher = more inhibition; extreme values may be limits of the assay
Outline: (§1)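 After 24 hours at 37°C and 5% CO2 in 1536-well plates, cells in DMEM/F12 or RPMI plus 10% FBS received two-drug dose matrices for 72 hours. Viability came from CellTiter-Glo 2.0 luminescence and was scaled as inhibition, anchored at 0 by vehicle wells and at 1 by blank wells. Combination Emax is taken as the second-highest inhibition in the matrix, and Bliss excess as the observed combination effect less EA + EB − EA·EB, with EA and EB the single-agent effects.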

[2] = tested on: PL4 (Pancreatic Carcinoma); assay: as above
Outline: as §1

[3] = tested on: MM1S (Plasma Cell Myeloma); assay: as above
Outline: as §1

[4] = tested on: NCI-H1341 (Small Cell Lung Carcinoma); assay: as above
Outline: as §1

[5] = tested on: NAMALWA (Burkitt's Lymphoma); assay: as above
Outline: as §1

[6] = tested on: T47D (Breast Carcinoma); assay: as above
Outline: as §1

[7] = tested on: GAK (Melanoma); assay: as above
Outline: as §1

[8] = tested on: SiHa (Cervical Carcinoma); assay: as above
Outline: as §1

[9] = tested on: DBTRG-05MG (Glioblastoma); assay: as above
Outline: as §1

[10] = tested on: MS-1 (Small Cell Lung Carcinoma); assay: as above
Outline: as §1

[11] = tested on: ZR-75-30 (Breast Carcinoma); assay: as above
Outline: as §1

[12] = tested on: OAW-28 (Ovarian Carcinoma); assay: as above
Outline: as §1

[13] = tested on: KALS-1 (Glioblastoma); assay: as above
Outline: as §1

[14] = tested on: P30-OHK (B-Lymphoblastic Leukemia); assay: as above
Outline: as §1

[15] = tested on: ES6 (Ewing's Sarcoma); assay: as above
Outline: as §1

[16] = tested on: IST-MEL1 (Melanoma); assay: as above
Outline: as §1

[17] = tested on: NCI-H2373 (Mesothelioma); assay: as above
Outline: as §1

[18] = tested on: SUP-M2 (T-Cell Non-Hodgkin's Lymphoma); assay: Bliss excess, mean over the matrix (fraction); higher = more synergy
Outline: as §1

[19] = tested on: NCI-H1341 (Small Cell Lung Carcinoma); assay: as above
Outline: as §1

[20] = tested on: SKG-IIIa (Cervical Carcinoma); assay: as above
Outline: as §1
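For Bliss excess, mean over the matrix in this document: after 72 h of two-drug dosing.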

| SMILES | combination Emax [1] | combination Emax [2] | combination Emax [3] | combination Emax [4] | combination Emax [5] | combination Emax [6] | combination Emax [7] | combination Emax [8] | combination Emax [9] | combination Emax [10] | combination Emax [11] | combination Emax [12] | combination Emax [13] | combination Emax [14] | combination Emax [15] | combination Emax [16] | combination Emax [17] | Bliss excess [18] | Bliss excess [19] | Bliss excess [20] |
| --- | --- | --- | --- | --- | --- | --- | --- | --- | --- | --- | --- | --- | --- | --- | --- | --- | --- | --- | --- | --- |
| CCN(CCO)CCCOc1ccc2c(Nc3cc(CC(=O)Nc4cccc(F)c4)[nH]n3)ncnc2c1 [AZD2811] + O=C(c1cc(Cc2n[nH]c(=O)c3ccccc23)ccc1F)N1CCN(C(=O)C2CC2)CC1 [Olaparib] (first compound max 1 µM, 7x7, partner max 10 µM) | 0.615 | 0.269 | 0.291 | 0.294 | 0.617 | 0.233 | 0.295 | 0.173 | 0.242 | 0.454 | 0.185 | 0.213 | 0.296 | 0.848 | 0.249 | 0.259 | 0.206 | -0.0429 | 0.0125 | -0.0286 |
| Cc1cc2ncnn2cc1Nc1ncc2c(n1)n(C1CCOCC1)c(=O)n2C [AZD7648] + CN(C)CCCOc1ccc(-c2ccc3ncc4c(c3c2)n(C2CCOCC2)c(=O)n4C)cn1 [AZD0156] (first compound max 10 µM, 7x7, partner max 1 µM) | 0.309 | 0.0509 | 0.389 | 0.34 | 0.266 | 0.501 | 0.303 | 0.305 | 0.192 | 0.309 | 0.194 | 0.187 | 0.346 | 0.376 | 0.37 | 0.275 | 0.566 | 0.0397 | 0.0157 | -0.0195 |
| COc1nnc2ccc(N3CCC(c4ccc(OCCN5CCN(C)C(=O)[C@H]5C)cc4)CC3)nn12 [AZD5153] + Cn1cnc2c(F)c(Nc3ccc(Br)cc3Cl)c(C(=O)NOCCO)cc21 [Selumetinib] (first compound max 1 µM, 7x7, partner max 10 µM) | 0.804 | 0.851 | 0.947 | 0.559 | 0.771 | 0.549 | 0.612 | 0.628 | 0.399 | 0.817 | 0.305 | 0.498 | 0.738 | 0.999 | 0.297 | 0.389 | 0.439 | -0.0138 | -0.0282 | 0.0128 |
| CC(=O)c1c(C)c2cnc(Nc3ccc(N4CCNCC4)cn3)nc2n(C2CCCC2)c1=O [Palbociclib] + Cc1c2c(nn1C)CSCc1cc(n(C)n1)CSc1cc(c3ccccc3c1)OCCCc1c(C(=O)O)n(C)c3c-2c(Cl)ccc13 [AZD5991] (first compound max 10 µM, 7x7, partner max 1 µM) | 0.455 | 0.263 | 0.26 | 0.374 | 0.956 | 0.413 | 0.369 | 0.0939 | 0.169 | 0.609 | 0.26 | 0.277 | 0.229 | 0.811 | 0.412 | 0.258 | 0.328 | -0.0132 | -0.031 | -0.0489 |
| CCc1c2c(nc3ccc(O)cc13)-c1cc3c(c(=O)n1C2)COC(=O)[C@]3(O)CC [SN-38] + CN(C)CCCOc1ccc(-c2ccc3ncc4c(c3c2)n(C2CCOCC2)c(=O)n4C)cn1 [AZD0156] (first compound max 0.3 µM, 7x7, partner max 1 µM) | 0.887 | 0.828 | 0.966 | 0.955 | 0.989 | 0.643 | 0.477 | 0.235 | 0.412 | 0.63 | 0.0683 | 0.791 | 0.596 | 0.973 | 0.603 | 0.864 | 0.726 | 0.061 | -0.0226 | 0.0352 |
| CN(CCO)CC[C@H](CSc1ccccc1)Nc1ccc(S(=O)(=O)NC(=O)c2ccc(N3CCC([C@@H](O)c4ccccc4-c4ccc(Cl)cc4)CC3)cc2)cc1S(=O)(=O)C(F)(F)F [AZD4320] + CCN(CCO)CCCOc1ccc2c(Nc3cc(CC(=O)Nc4cccc(F)c4)[nH]n3)ncnc2c1 [AZD2811] (first compound max 1 µM, 7x7, partner max 1 µM) | 0.889 | 0.544 | 1 | 1 | 0.48 | 0.335 | 0.257 | 0.162 | 0.775 | 0.597 | 0.173 | 0.958 | 0.508 | 1 | 0.161 | 0.407 | 0.125 | 0.0503 | 0.0422 | -0.015 |
| CC(=O)c1c(C)c2cnc(Nc3ccc(N4CCNCC4)cn3)nc2n(C2CCCC2)c1=O [Palbociclib] + Cn1cnc2c(F)c(Nc3ccc(Br)cc3Cl)c(C(=O)NOCCO)cc21 [Selumetinib] (first compound max 10 µM, 7x7, partner max 10 µM) | 0.858 | 0.523 | 0.253 | 0.254 | 0.595 | 0.265 | 0.697 | 0.16 | 0.338 | 0.416 | 0 | 0.344 | 0.432 | 0.408 | 0.349 | 0.401 | 0.354 | 0.0342 | -0.0199 | -0.0394 |
| CCN(CCO)CCCOc1ccc2c(Nc3cc(CC(=O)Nc4cccc(F)c4)[nH]n3)ncnc2c1 [AZD2811] + C=CCn1c(=O)c2cnc(Nc3ccc(N4CCN(C)CC4)cc3)nc2n1-c1cccc(C(C)(C)O)n1 [AZD1775] (first compound max 1 µM, partner max 1 µM) | 0.674 | 0.554 | 0.776 | 0.632 | 0.977 | 0.314 | 0.682 | 0.164 | 0.195 | 0.848 | 0.155 | 0.213 | 0.841 | 0.846 | 0.285 | 0.504 | 0.408 | -0.036 | 0.0747 | -0.0142 |
| Cc1c2c(nn1C)CSCc1cc(n(C)n1)CSc1cc(c3ccccc3c1)OCCCc1c(C(=O)O)n(C)c3c-2c(Cl)ccc13 [AZD5991] + C=CCn1c(=O)c2cnc(Nc3ccc(N4CCN(C)CC4)cc3)nc2n1-c1cccc(C(C)(C)O)n1 [AZD1775] (first compound max 1 µM, partner max 1 µM) | 0.517 | 0.737 | 0.992 | 0.832 | 0.996 | 0.574 | 0.802 | 0.314 | 0.262 | 0.916 | 0.364 | 0.347 | 0.886 | 0.875 | 0.386 | 0.556 | 0.394 | 0.0007 | 0.0185 | 0.0071 |
| Cc1c2c(nn1C)CSCc1cc(n(C)n1)CSc1cc(c3ccccc3c1)OCCCc1c(C(=O)O)n(C)c3c-2c(Cl)ccc13 [AZD5991] + C[C@@H]1COCCN1C2=NC(=NC(=C2)C3(CC3)[S@](=N)(=O)C)C4=C5C=CNC5=NC=C4 [AZD6738] (first compound max 1 µM, 7x7, partner max 10 µM) | 0.615 | 0.761 | 1 | 0.71 | 0.997 | 0.44 | 0.593 | 0.318 | 0.232 | 0.826 | 0.429 | 0.52 | 0.926 | 0.996 | 0.445 | 0.788 | 0.551 | 0.0505 | 0.0751 | 0.0106 |
| Cn1cnc2c(F)c(Nc3ccc(Br)cc3Cl)c(C(=O)NOCCO)cc21 [Selumetinib] + C=CCn1c(=O)c2cnc(Nc3ccc(N4CCN(C)CC4)cc3)nc2n1-c1cccc(C(C)(C)O)n1 [AZD1775] (first compound max 10 µM, partner max 1 µM) | 0.794 | 0.63 | 0.746 | 0.697 | 0.966 | 0.34 | 0.719 | 0.22 | 0.395 | 0.778 | 0.134 | 0.395 | 0.755 | 0.675 | 0.233 | 0.527 | 0.342 | 0.0582 | 0.0153 | -0.0733 |
| C=CCn1c(=O)c2cnc(Nc3ccc(N4CCN(C)CC4)cc3)nc2n1-c1cccc(C(C)(C)O)n1 [AZD1775] + C1CN(CCC1(C(=O)N[C@@H](CCO)C2=CC=C(C=C2)Cl)N)C3=NC=NC4=C3C=CN4 [Capivasertib] (first compound max 3 µM, partner max 3 µM) | 0.691 | 0.737 | 1 | 0.923 | 0.981 | 0.555 | 0.73 | 0.505 | 0.474 | 0.911 | 0.441 | 0.593 | 0.766 | 0.947 | 0.472 | 0.65 | 0.54 | 0.0518 | -0.0538 | -0.0139 |
| CC(=O)c1c(C)c2cnc(Nc3ccc(N4CCNCC4)cn3)nc2n(C2CCCC2)c1=O [Palbociclib] + CC1(C)CCC(CN2CCN(c3ccc(C(=O)NS(=O)(=O)c4ccc(NCC5CCOCC5)c([N+](=O)[O-])c4)c(Oc4cnc5[nH]ccc5c4)c3)CC2)=C(c2ccc(Cl)cc2)C1 [Venetoclax] (first compound max 10 µM, 7x7, partner max 1 µM) | 0.43 | 0.184 | 0.308 | 0.259 | 0.537 | 0.237 | 0.205 | 0.123 | 0.114 | 0.303 | 0.101 | 0.173 | 0.146 | 0.866 | 0.232 | 0.237 | 0.223 | -0.0058 | 0.0245 | -0.0667 |
